What all share (format): functional
For one assay, the system named is PC-3. In words: Growth inhibition of human PC3 cells by SRB assay. A general note: Sulforhodamine B stains cellular protein and so reports cell mass.
The subject of the next assay is HOP-62. Kind of assay: Growth inhibition of human HOP62 cells by SRB assay.
A further assay has as its system A549. In words: Growth inhibition of human A549 cells by SRB assay.
The test system of a further assay is ZR-75-1. In words: Growth inhibition of human ZR-75-1 cells by SRB assay.
Assay [1] can be described thus: Growth inhibition of human Gurav cells by SRB assay.
The next assay concerns SiHa. In words: Growth inhibition of human SiHa cells by SRB assay.
A further assay has as its system KB. In words: Growth inhibition of human KB cells by SRB assay.
In a further assay the test system is A2780. Kind of assay: Growth inhibition of human A2780 cells by SRB assay.
In a further assay the test system is MCF7. In words: Growth inhibition of human MCF7 cells by SRB assay.
Another assay concerns COLO 205. Kind of assay: Growth inhibition of human COLO205 cells by SRB assay.
The nature of assay [2]: Growth inhibition of human DWD cells by SRB assay.

By GI50 is commonly meant the concentration that inhibits growth by half. High values mean lower sensitivity of the cells, low ones greater sensitivity of the cells.

Turning to `Oc1cccc2[nH]c(-c3ccc(-c4ccc(-c5cccc(Cl)c5)cc4)cc3)nc12`, the GI50 is 2.56 µM with PC-3; 2.26 µM in the assay with HOP-62; 2.4 µM in the assay with A549; 2.41 µM with ZR-75-1; 2.31 µM in assay [1]; 8.4 µM in the assay with SiHa. Besides, the GI50 is 2.28 µM in the assay with KB; 2.8 µM with A2780; 3.42 µM in the assay with MCF7; 8.6 µM in the assay with COLO 205; 2.1 µM in [2].

As to `Cc1ccc2[nH]c(-c3ccc(-c4ccc(-c5ccc(OC(F)(F)F)cc5)cc4)cc3)nc2c1`, the 50% growth inhibitory concentration (GI50) in the assay with PC-3 was determined as 2.01 µM; in the assay on HOP-62, 24.2 µM; in the assay on A549, 3.56 µM; with ZR-75-1, 2.41 µM; in assay [1], 11 µM; in the assay with SiHa it was 28.3 µM. The GI50 with KB came to 41.2 µM; in the assay on A2780, 12.3 µM; in the assay with MCF7 it was 31 µM; in the assay with COLO 205 it was 30.6 µM; in [2], 41.1 µM.

Regarding `COc1ccc(-c2ccc(-c3ccc(-c4nc5c(O)cccc5[nH]4)cc3)cc2)cc1OC`, the GI50 with PC-3 turned out to be 1.24 µM; in the assay with HOP-62 it was 2.21 µM; with A549, 1.31 µM; in the assay with ZR-75-1, 2.11 µM; in assay [1] it was 1.11 µM; with SiHa, 1.11 µM. Also, the GI50 with KB was 2.71 µM; in the assay with A2780 it was 2.71 µM; in the assay on MCF7, 0.19 µM; in the assay with COLO 205, 1.32 µM; in assay [2], 1.4 µM.

As for `Oc1cccc2[nH]c(-c3ccc(-c4ccc(-c5ccc(OC(F)(F)F)cc5)cc4)cc3)nc12`, the GI50 in the assay on PC-3 came to 7.41 µM; with HOP-62, 2.27 µM; with A549 it was 0.19 µM; with ZR-75-1, 3.8 µM; in assay [1], 3.6 µM; with SiHa it was 8.41 µM. In addition, the GI50 stood at 3.31 µM with KB; 2.9 µM in the assay on A2780; 2.21 µM in the assay on MCF7; 8.32 µM in the assay on COLO 205; 3.1 µM in assay [2].

Consider `COc1cc(-c2ccc(-c3ccc(-c4nc5ccccc5[nH]4)cc3)cc2)cc(OC)c1OC`, for which the concentration for 50% growth inhibition (GI50) with PC-3 turned out to be 9.72 µM; with HOP-62 it was 9.43 µM; in the assay with A549, 2.11 µM; in the assay on ZR-75-1, 9.71 µM; in [1], 7.1 µM; with SiHa, 4.98 µM. Moreover, the GI50 in the assay with KB was 2.98 µM; in the assay with A2780, 9.21 µM; in the assay on MCF7, 6.38 µM; in the assay with COLO 205, 8.32 µM; in [2] it was 8.01 µM.

Turning to `COc1ccc(-c2ccc(-c3ccc(-c4nc5ccccc5[nH]4)cc3)cc2)cc1`, the GI50 came out at 100 µM in the assay with PC-3; 100 µM with HOP-62; 38.1 µM in the assay with A549; 35.1 µM in the assay with ZR-75-1; 38.1 µM in assay [1]; 2.76 µM with SiHa. For the same compound, the GI50 was 47.2 µM in the assay with KB; 100 µM in the assay with A2780; 33.3 µM with MCF7; 45.2 µM with COLO 205; 100 µM in assay [2].

For `Cc1ccc2[nH]c(-c3ccc(-c4ccc(-c5cccc(Cl)c5)cc4)cc3)nc2c1`, the GI50 came to 2.67 µM in the assay on PC-3; 2.74 µM in the assay on HOP-62; 2.8 µM with A549; 3.45 µM with ZR-75-1; 2.12 µM in assay [1]; 3.6 µM with SiHa. Also, the GI50 in the assay on KB came out at 2.26 µM; in the assay with A2780 it was 2.8 µM; in the assay on MCF7 it was 1.21 µM; in the assay on COLO 205, 2.78 µM; in [2], 2.51 µM.

Take `CN(C)c1ccc(-c2ccc(-c3ccc(-c4nc5c(O)cccc5[nH]4)cc3)cc2)cc1`: the GI50 in the assay on PC-3 was 8.42 µM; with HOP-62, 8.25 µM; in the assay with A549, 7.1 µM; in the assay with ZR-75-1 it was 4.1 µM; in [1], 8.21 µM; in the assay on SiHa, 6.24 µM. Besides, the concentration for 50% growth inhibition (GI50) with KB turned out to be 4.2 µM; with A2780, 3.01 µM; with MCF7, 2.31 µM; in the assay on COLO 205 it was 6.32 µM; in assay [2], 9.21 µM.

With `FC(F)(F)Oc1ccc(-c2ccc(-c3ccc(-c4nc5ccccc5[nH]4)cc3)cc2)cc1`, the concentration for 50% growth inhibition (GI50) with PC-3 is 100 µM; in the assay on HOP-62, 100 µM; with A549, 38 µM; in the assay with ZR-75-1, 100 µM; in assay [1] it was 100 µM; in the assay on SiHa it was 38.4 µM. In addition, the GI50 in the assay on KB was 39.1 µM; with A2780, 100 µM; in the assay on MCF7, 38.4 µM; in the assay with COLO 205 it was 100 µM; in [2], 100 µM.

Take `Clc1cccc(-c2ccc(-c3ccc(-c4nc5ccccc5[nH]4)cc3)cc2)c1`: the concentration for 50% growth inhibition (GI50) in the assay with PC-3 worked out at 33.7 µM; in the assay with HOP-62 it was 100 µM; in the assay with A549, 31.1 µM; in the assay with ZR-75-1, 41.2 µM; in [1] it was 2.19 µM; with SiHa it was 100 µM. The concentration for 50% growth inhibition (GI50) came out at 32.3 µM in the assay with KB; 31.1 µM in the assay with A2780; 36.3 µM in the assay with MCF7; 100 µM in the assay with COLO 205; 100 µM in [2].

As to `COc1ccc(-c2ccc(-c3ccc(-c4nc5cc(C)ccc5[nH]4)cc3)cc2)cc1`, the GI50 in the assay with PC-3 was determined as 100 µM; with HOP-62 it was 36.3 µM; in the assay on A549, 6.33 µM; in the assay on ZR-75-1, 41.1 µM; in [1], 9.27 µM; in the assay on SiHa, 21.2 µM. Also, the 50% growth inhibitory concentration (GI50) in the assay on KB came out at 28.3 µM; in the assay on A2780, 2.11 µM; with MCF7, 3.11 µM; in the assay on COLO 205, 100 µM; in [2] it was 100 µM.

Regarding `COc1cccc2c1C(=O)c1c(O)c3c(c(O)c1C2=O)C[C@@](O)(C(=O)CO)C[C@@H]3O[C@H]1C[C@H](N)[C@H](O)[C@H](C)O1` [DOXORUBICIN], the GI50 was 0.14 µM in the assay on HOP-62; 0.17 µM in [1]; 0.14 µM in the assay with SiHa; 0.17 µM in the assay with KB; 0.16 µM in the assay on A2780; 0.17 µM in the assay on MCF7. For the same compound, the concentration for 50% growth inhibition (GI50) in the assay on COLO 205 amounted to 0.14 µM; in assay [2] it was 0.1 µM.

In the case of `Oc1ccc(-c2ccc(-c3ccc(-c4nc5ccccc5[nH]4)cc3)cc2)cc1`, the GI50 is 47 µM in the assay with PC-3; 47.2 µM with HOP-62; 33.1 µM in the assay with A549; 100 µM in the assay on ZR-75-1; 100 µM in [1]; 33.3 µM in the assay with SiHa. Moreover, the GI50 with KB worked out at 41 µM; with A2780, 36 µM; in the assay on MCF7, 30.5 µM; in the assay on COLO 205 it was 100 µM; in assay [2] it was 46.3 µM.

As for `Cc1ccc2[nH]c(-c3ccc(-c4ccc(-c5ccc(O)cc5)cc4)cc3)nc2c1`, the GI50 in the assay with PC-3 worked out at 30 µM; in the assay on HOP-62, 41.2 µM; in the assay with A549, 3.52 µM; in the assay with ZR-75-1, 18.2 µM; in [1] it was 11.3 µM; in the assay on SiHa, 33.5 µM. Also, the GI50 in the assay with KB worked out at 21.2 µM; with A2780 it was 31.2 µM; with MCF7, 12.1 µM; with COLO 205 it was 100 µM; in assay [2], 21.2 µM.

As to `c1ccc(-c2ccc(-c3ccc(-c4nc5ccccc5[nH]4)cc3)cc2)cc1`, the concentration for 50% growth inhibition (GI50) in the assay with PC-3 was determined as 41.2 µM; with HOP-62, 100 µM; in the assay with A549, 41.2 µM; in the assay with ZR-75-1, 100 µM; in [1] it was 100 µM; in the assay on SiHa, 100 µM. Besides, the GI50 amounted to 39.7 µM in the assay on KB; 32.1 µM with A2780; 39.2 µM in the assay with MCF7; 100 µM in the assay on COLO 205; 100 µM in assay [2].

Regarding `Fc1ccc(-c2ccc(-c3ccc(-c4nc5ccccc5[nH]4)cc3)cc2)cc1`, the GI50 was 41.2 µM in the assay on PC-3; 39.3 µM in the assay with HOP-62; 33.2 µM in the assay with A549; 100 µM in the assay on ZR-75-1; 100 µM in assay [1]; 29.7 µM with SiHa. Moreover, the GI50 came to 41.3 µM in the assay on KB; 48.2 µM in the assay with A2780; 36.2 µM in the assay with MCF7; 100 µM in the assay on COLO 205; 35.6 µM in [2].

In the case of `Cc1ccc2[nH]c(-c3ccc(-c4ccc(-c5ccccc5)cc4)cc3)nc2c1`, the 50% growth inhibitory concentration (GI50) in the assay with PC-3 was found to be 100 µM; with HOP-62 it was 39.3 µM; in the assay with A549, 3.63 µM; in the assay on ZR-75-1 it was 27.4 µM; in [1] it was 3.31 µM; with SiHa, 35.2 µM. Besides, the GI50 in the assay with KB was found to be 32.1 µM; in the assay on A2780 it was 41.2 µM; in the assay with MCF7, 31.6 µM; in the assay with COLO 205, 2.56 µM; in assay [2], 28.3 µM.

For the compound `Cc1ccc2[nH]c(-c3ccc(-c4ccc(-c5ccc(N(C)C)cc5)cc4)cc3)nc2c1`, the concentration for 50% growth inhibition (GI50) was 8.12 µM in the assay on PC-3; 4.23 µM in the assay with HOP-62; 3.51 µM in the assay with A549; 7.2 µM in the assay with ZR-75-1; 6.24 µM in [1]; 7.11 µM in the assay with SiHa. The concentration for 50% growth inhibition (GI50) with KB was found to be 6.24 µM; in the assay on A2780, 2.21 µM; in the assay with MCF7 it was 3.13 µM; in the assay with COLO 205 it was 9.21 µM; in [2], 3.23 µM.

`Oc1cccc2[nH]c(-c3ccc(-c4ccc(-c5ccc(C(F)(F)F)cc5)cc4)cc3)nc12`: the GI50 is 2.26 µM in the assay with PC-3; 3.2 µM with HOP-62; 3.61 µM in the assay on A549; 5.11 µM in the assay with ZR-75-1; 3.19 µM in assay [1]; 3.72 µM with SiHa. Also, the 50% growth inhibitory concentration (GI50) with KB came out at 4.32 µM; with A2780, 6.1 µM; in the assay with MCF7 it was 2.31 µM; in the assay on COLO 205, 3.41 µM; in [2], 3.18 µM.
